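Five concentrations, 48 hours, 96-well plates. The concentration for 50% growth inhibition is given as GI50.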 The source made the active and inactive calls. No stated cut-off is given here; in the data, active = GI50 up to about 1.1 µM and inactive = higher.
Columns and labels:
Assay in all cases: growth of human tumour cells (NCI), 48 h
786-0 = system: 786-0
A498 = system: A498
A549 = system: A549
ACHN = system: ACHN
BT-549 = system: BT-549
CAKI-1 = system: CAKI-1
CCRF-CEM = system: CCRF-CEM
COLO 205 = system: COLO 205
DU-145 = system: DU-145
EKVX = system: EKVX
HCC 2998 = system: HCC 2998
HCT-116 = system: HCT-116
HCT-15 = system: HCT-15
HL-60 = system: HL-60
HOP-62 = system: HOP-62
HOP-92 = system: HOP-92
HT-29 = system: HT-29
Hs-578T = system: Hs-578T
IGROV-1 = system: IGROV-1
K562 = system: K562
KM12 = system: KM12
LOX IMVI = system: LOX IMVI
M14 = system: M14
MCF7 = system: MCF7
MDA-MB-231 = system: MDA-MB-231
MDA-MB-435 = system: MDA-MB-435
MDA-N = system: MDA-N
MOLT-4 = system: MOLT-4
Malme-3M = system: Malme-3M
NCI-H226 = system: NCI-H226
NCI-H23 = system: NCI-H23
NCI-H460 = system: NCI-H460
NCI-H522 = system: NCI-H522
NCI/ADR-RES = system: NCI/ADR-RES
OVCAR-3 = system: OVCAR-3
OVCAR-4 = system: OVCAR-4
OVCAR-5 = system: OVCAR-5
OVCAR-8 = system: OVCAR-8
PC-3 = system: PC-3
RPMI-8226 = system: RPMI-8226
RXF 393 = system: RXF 393
SF-268 = system: SF-268
SF-295 = system: SF-295
SF-539 = system: SF-539
SK-MEL-28 = system: SK-MEL-28
SK-MEL-2 = system: SK-MEL-2
SK-MEL-5 = system: SK-MEL-5
SK-OV-3 = system: SK-OV-3
SN12C = system: SN12C
SNB-19 = system: SNB-19
SNB-75 = system: SNB-75
SR = system: SR
SW-620 = system: SW-620
T47D = system: T47D
TK-10 = system: TK-10
U-251 = system: U-251
UACC-257 = system: UACC-257
UACC-62 = system: UACC-62
UO-31 = system: UO-31

SMILES: COc1ccc2cc(CNCCCCCCCCCCCCNCc3ccc4cc(OC)ccc4c3)ccc2c1
- GI50 (786-0): 16.5 µM (inactive)
- GI50 (A498): 18 µM (inactive)
- GI50 (A549): 24.3 µM (inactive)
- GI50 (ACHN): 19.6 µM (inactive)
- GI50 (BT-549): 18.9 µM (inactive)
- GI50 (CAKI-1): 20.9 µM (inactive)
- GI50 (CCRF-CEM): 9.46 µM (inactive)
- GI50 (COLO 205): 16.4 µM (inactive)
- GI50 (DU-145): 30 µM (inactive)
- GI50 (EKVX): 20.3 µM (inactive)
- GI50 (HCC 2998): 13.5 µM (inactive)
- GI50 (HCT-116): 16.7 µM (inactive)
- GI50 (HCT-15): 17.6 µM
- GI50 (HL-60): 10.4 µM (inactive)
- GI50 (HOP-62): 19.4 µM (inactive)
- GI50 (HOP-92): 21.7 µM (inactive)
- GI50 (HT-29): 8.49 µM (inactive)
- GI50 (Hs-578T): 15.9 µM (inactive)
- GI50 (IGROV-1): 15.8 µM (inactive)
- GI50 (K562): 10.4 µM (inactive)
- GI50 (KM12): 19.2 µM (inactive)
- GI50 (LOX IMVI): 15 µM (inactive)
- GI50 (M14): 17.4 µM (inactive)
- GI50 (MCF7): 17.1 µM (inactive)
- GI50 (MDA-MB-231): 23.5 µM (inactive)
- GI50 (MDA-MB-435): 25.6 µM (inactive)
- GI50 (MDA-N): 21.4 µM (inactive)
- GI50 (MOLT-4): 21.5 µM (inactive)
- GI50 (Malme-3M): 16.6 µM (inactive)
- GI50 (NCI-H226): 18.5 µM (inactive)
- GI50 (NCI-H23): 20 µM (inactive)
- GI50 (NCI-H460): 17.3 µM (inactive)
- GI50 (NCI-H522): 18.9 µM (inactive)
- GI50 (NCI/ADR-RES): 19.5 µM (inactive)
- GI50 (OVCAR-3): 21.2 µM (inactive)
- GI50 (OVCAR-4): 16.4 µM (inactive)
- GI50 (OVCAR-5): 28.4 µM (inactive)
- GI50 (OVCAR-8): 15 µM (inactive)
- GI50 (PC-3): 28.3 µM (inactive)
- GI50 (RPMI-8226): 12.8 µM (inactive)
- GI50 (RXF 393): 14.8 µM (inactive)
- GI50 (SF-268): 8.04 µM (inactive)
- GI50 (SF-295): 19.5 µM (inactive)
- GI50 (SF-539): 17.4 µM (inactive)
- GI50 (SK-MEL-28): 27.7 µM (inactive)
- GI50 (SK-MEL-2): 22.5 µM (inactive)
- GI50 (SK-MEL-5): 22.6 µM (inactive)
- GI50 (SK-OV-3): 18.7 µM (inactive)
- GI50 (SN12C): 19.7 µM (inactive)
- GI50 (SNB-19): 17.5 µM (inactive)
- GI50 (SNB-75): 13.9 µM (inactive)
- GI50 (SR): 1.79 µM (inactive)
- GI50 (SW-620): 20.7 µM (inactive)
- GI50 (T47D): 15.8 µM (inactive)
- GI50 (TK-10): 18.8 µM (inactive)
- GI50 (U-251): 20.8 µM (inactive)
- GI50 (UACC-257): 21 µM (inactive)
- GI50 (UACC-62): 21.2 µM (inactive)
- GI50 (UO-31): 20.9 µM (inactive)

SMILES: Cc1cc2nc3c(C#N)c(C)c(CCCl)c(Cl)n3c2cc1C
- GI50 (786-0): 2 µM (inactive)
- GI50 (A498): 2.92 µM (inactive)
- GI50 (A549): 7.19 µM (inactive)
- GI50 (ACHN): 5.3 µM (inactive)
- GI50 (BT-549): 2.49 µM (inactive)
- GI50 (CAKI-1): 2.88 µM (inactive)
- GI50 (CCRF-CEM): 2.34 µM (inactive)
- GI50 (COLO 205): 3.69 µM (inactive)
- GI50 (DU-145): 3.84 µM (inactive)
- GI50 (EKVX): 10.5 µM (inactive)
- GI50 (HCC 2998): 2.97 µM (inactive)
- GI50 (HCT-116): 1.57 µM (inactive)
- GI50 (HCT-15): 1.87 µM
- GI50 (HL-60): 2.55 µM (inactive)
- GI50 (HOP-62): 2.44 µM (inactive)
- GI50 (HOP-92): 2.04 µM (inactive)
- GI50 (HT-29): 2.46 µM (inactive)
- GI50 (Hs-578T): 3.23 µM (inactive)
- GI50 (IGROV-1): 2.09 µM (inactive)
- GI50 (K562): 2.39 µM (inactive)
- GI50 (KM12): 6.1 µM (inactive)
- GI50 (LOX IMVI): 1.46 µM (inactive)
- GI50 (M14): 2.27 µM (inactive)
- GI50 (MCF7): 2.9 µM (inactive)
- GI50 (MDA-MB-231): 2 µM (inactive)
- GI50 (MDA-MB-435): 2.07 µM (inactive)
- GI50 (MDA-N): 2.61 µM (inactive)
- GI50 (MOLT-4): 2.08 µM (inactive)
- GI50 (Malme-3M): 2.96 µM (inactive)
- GI50 (NCI-H226): 0.166 µM (active)
- GI50 (NCI-H23): 2.12 µM (inactive)
- GI50 (NCI-H460): 5.77 µM (inactive)
- GI50 (NCI-H522): 12 µM (inactive)
- GI50 (NCI/ADR-RES): 3.18 µM (inactive)
- GI50 (OVCAR-3): 1.75 µM (inactive)
- GI50 (OVCAR-4): 6.76 µM (inactive)
- GI50 (OVCAR-5): 2.18 µM (inactive)
- GI50 (OVCAR-8): 2.63 µM (inactive)
- GI50 (PC-3): 5.6 µM (inactive)
- GI50 (RPMI-8226): 2.58 µM (inactive)
- GI50 (RXF 393): 1.81 µM (inactive)
- GI50 (SF-268): 2.36 µM (inactive)
- GI50 (SF-295): 3.49 µM (inactive)
- GI50 (SF-539): 2.51 µM (inactive)
- GI50 (SK-MEL-28): 4.52 µM (inactive)
- GI50 (SK-MEL-2): 1.87 µM (inactive)
- GI50 (SK-MEL-5): 4.39 µM (inactive)
- GI50 (SK-OV-3): > 28.6 µM (inactive)
- GI50 (SN12C): 1.92 µM (inactive)
- GI50 (SNB-19): 10.8 µM (inactive)
- GI50 (SNB-75): 1.87 µM (inactive)
- GI50 (SR): 2.29 µM (inactive)
- GI50 (SW-620): 2.34 µM (inactive)
- GI50 (T47D): 3.13 µM (inactive)
- GI50 (TK-10): 2.18 µM (inactive)
- GI50 (U-251): > 43.5 µM (inactive)
- GI50 (UACC-257): 2.23 µM (inactive)
- GI50 (UACC-62): 1.93 µM (inactive)
- GI50 (UO-31): 2.02 µM (inactive)

Reference: ChEMBL document CHEMBL1201862, “PubChem BioAssay data set” (2004)
